From patent US10287617B2, “Methods for in vitro—in vivo efficacy determination” (COLORADO STATE UNIVERSITY RESEARCH FOUNDATION, priority 2014, dated 2019)
≈ marks a conversion by molar mass, not a printed value. Entries after “also recorded” stand apart in the source; their conditions may differ. Where two headings read alike, the source gives them in different places. Marks after values point to notes of the source that are not given here.

What was measured:
[1] = system: Mycobacteria tuberculosis; assay: MIC and drug response curve type (Tables A and B); assay type: cell-based, Mycobacterium tuberculosis; conditions: Table A; for Curve: drug response curve type; for MIC: in µg/mL
Method: A drug concentration response curve can be generated by graphing the log10 drug concentrations (μg/mL) against the difference in growth between the drug-treated wells and control wells. See FIG. 3C, and FIG. 5 (entries for SB-P23D8 and SB-P26D9). A NREBA is indicative of bacteriostatic activity above the MIC.
(§1) Further analysis using the methods described herein was performed on the compounds found in Tables A and B (bold font compounds are shown in FIG. 11) resulting in the data found therein.
MIC values were determined for the benzimidazoles using a modified 96-well microplate Alamar Blue (resazurin) assay (MABA) (see Kumar et al., J. Med. Chem. 2011; 54:374-381; Collins and Franzblau, Antimicrob. Agents Chemother. 1997; 41:1004-1009). Dose response curves were generated from the MABA assay for compounds by graphing the log10 drug concentrations against the difference in growth between the drug-treated wells and control wells using GraphPad Prism Version 5.0d for Mac OS X (GraphPad Software, San Diego Calif., USA, www.graphpad.com). For time dose studies, bacterial growth in the presence of compound was monitored by the O.D. 600 nm. […] The values were plotted against time using GraphPad Prism Version 5.0d for Mac OS X (GraphPad Software, San Diego Calif., USA, www.graphpad.com).

[2] = system: M. tuberculosis; assay: Benzimidazoles activity tested in animals (animal models of infection, Table A); assay type: in vivo, mouse; conditions: Table A
Method: as §1
(§2) Compound efficacy was assessed in two murine models of infection based on the short term model described previously (Lenaerts et al., Antimicrob. Agents Chemother. 2003; 47:783-785). All aerosol infections were performed using a Middlebrook aerosol generation devise (Glas-Col, Terre Haute, Ind.).

[3] = system: M. tuberculosis H37Rv; conditions: previously reported SAR study; cited from earlier work
[4] = system: M. tuberculosis clinical isolates; conditions: previously reported; cited from earlier work
[5] = Oxidative metabolic lability in human liver microsomes; conditions: for Liver Microsome Lability Human: 5 μM, 1 mg/mL microsomal protein, 20 min
Method: (§5) Microsomal fractions were prepared in the Drug Disposition Domain at DSAR Montpellier (371 rue du Pr. J. Blayac, 34184 Montpellier Cedex 04, France). […] The flavin-containing monooxygenases (FMO)-dependent reactions were run in the presence of bovine serum albumin (BSA, 0.1%) for the duration of 0 and 20 min (with or without microsomal proteins and/or cofactors). […] Following protein precipitation with acetonitrile and their removal by centrifugation, supernatant fluids were analyzed by LC/MS-MS.
(§6) Thermo Finnigan TSQ Quantum Ultra instrument, ESI positive ion ionization mode. Each compound is studied in duplicates. Results are expressed in percentage of lability (or total metabolism). Total metabolism=[1−(UC_Peak Area+Cofactor at T20)/(UC_Peak Area Reference at T0)]×100
(§7) The reactions were prepared as described and were run in the presence of bovine scrum albumin (BSA, 0.1%) for the duration of 0 and 20 min (with or without microsomal proteins and/or cofactors). Enzyme activity was stopped, the protein was precipitated and removed by centrifugation. The supernatant fluids were analyzed by LC/MS-MS. […] A Thermo Finnigan TSQ Quantum Ultra instrument, ESI positive ion ionization mode was used for MS/MS. Each compound was studied in duplicates. Results are expressed in percentage of lability (or total metabolism) using the following formula: Total metabolism=[1−(UC_Peak Area+Cofactor at T20)/(UC_Peak Area Reference at T0)]×100 where UC=Unchanged Compound; “Reference” sample was NADPH for liver microsomal preparation.

[6] = Oxidative metabolic lability in mouse liver microsomes; conditions: for Liver Microsome Lability Mouse: 5 μM, 1 mg/mL microsomal protein, 20 min
Method: as §5, §6, §7

[7] = system: M. tuberculosis H37Rv; assay: MIC / dose response by modified microplate Alamar Blue assay (MABA); assay type: cell-based, Mycobacterium tuberculosis; conditions: for drug concentration response curve (kill curve) type: FIG. 3
[8] = system: M. tuberculosis H37Rv; assay: Growth inhibition / time dose curves (OD600 and CFU); assay type: cell-based, Mycobacterium tuberculosis; conditions: for reduction in number of viable bacteria: 1×MIC
[9] = system: non-replicating M. tuberculosis H37Rv; assay: Low oxygen study, non-replicating bacilli; assay type: cell-based, Mycobacterium tuberculosis; conditions: for Log10 (CFU+/−SD): 96 h post-treatment; for % Growth Reduction: benzimidazoles at 4 μg/mL; for Log10 (CFU) Reduction: vs control
Method: The low oxygen studies were performed similar to those described previously (Lenaerts et al., Antimicrob. Agents Chemother. 2005; 49:2294-2301). Briefly, M. tuberculosis H37Rv were diluted to an O.D. 600 nm of 0.003 in 7H9 media containing Methylene Blue (1.5 μg/mL) and were grown in 16×125 mm Hungate tubes with rubber septa (VWR cat#89167-170). The tubes, with 11 mL of the diluted cultures were incubated at 37° C. under agitation (150 rpm). […] One week after the reduction of methylene blue, approximately 28 days from the start, drug treatment was initiated with the test and control drugs. Prior to treatment, an aliquot was removed and plated for a CFU count to serve as a control. Isoniazid and metronidazole were used in the studies as comparative controls.
Recovery of aliquots for plating and the addition of drugs were conducted through septa using syringes to maintain the low-oxygen conditions. Ninety-six hours post-treatment, 1 mL of the culture was removed from the oxygen depleted cultures, the aliquot was serial diluted and the dilutions were plated. Log10 CFUs were calculated for the different treatments and concentrations. Percentage growth reduction from the controls was calculated and reported.

[10] = system: M. tuberculosis H37Rv; assay: Acute infection model in immune incompetent GKO mice; assay type: in vivo, mouse; conditions: compound 150 mg/kg IP q.d. 9 days, isoniazid 25 mg/kg q.d.
Method: as §2
(§3) In the first infection model, immune incompetent C57BL/6-Ifngtm1 ts gamma interferon gene disruption (GKO) mice were infected with M. tuberculosis H37Rv. Animals were dosed q.d. IP beginning at day 12 post-infection with 150 mg/kg of compound in 38% ethanol and 10% Solutol (e.g., Solutol HS 15) for 9 consecutive days. In the second animal model, immune competent C57BL/6 mice were infected with M. tuberculosis Erdman (TMCC 107). Animals were dosed b.i.d. IP with 100 mg/kg compound in 25% ethanol and 25% Solutol beginning at day 5 post-in feet ion for 10 consecutive days. Isoniazid was used as a comparative positive control and was delivered q.d. at 25 mg/kg as a positive control.
(§4) In both studies, animals were sacrificed and necropsied, bacterial burden in lungs or spleens were quantified on 7H11 agar containing carbenicillin (Sigma, C1389) and cycloheximide (Sigma, C7698) and upon incubation for three weeks bacterial colony forming units were enumerated. Outliers were identified by the Grubbs' Test and a one-way t-test at a 95% confidence interval was used to compare treatment groups and controls, to calculate p-values, and to produce bar graphs and scatter plots GraphPad Prism Version 5.0d for Mac OS X (GraphPad Software, San Diego Calif., USA www.graphpad.com).

[11] = system: M. tuberculosis Erdman; assay: Dissemination model in immune competent C57BL/6 mice; assay type: in vivo, mouse; conditions: isoniazid 25 mg/kg q.d.; for reduction of bacterial load in the spleen: compound 100 mg/kg IP b.i.d. 10 days
Method: as §2, §3, §4

[12] = system: M. tuberculosis TN587; assay: microbe, parasite or virus in culture; assay type: cell-based, Mycobacterium tuberculosis
[13] = system: M. tuberculosis NHN382; assay: microbe, parasite or virus in culture; assay type: cell-based, Mycobacterium tuberculosis
[14] = system: M. tuberculosis W210; assay: microbe, parasite or virus in culture; assay type: cell-based, Mycobacterium tuberculosis
[15] = system: M. tuberculosis NHN20; assay: microbe, parasite or virus in culture; assay type: cell-based, Mycobacterium tuberculosis
[16] = molecular target: Mtb FtsZ (Mycobacterium tuberculosis, UniProt P9WN95); assay: FtsZ polymerization by transmission electron microscopy; assay type: biochemical; conditions: FtsZ 5 μM, GTP 25 μM, compound 40 μM and 80 μM
Mtb FtsZ, sequence (P9WN95 whole entry, looked up): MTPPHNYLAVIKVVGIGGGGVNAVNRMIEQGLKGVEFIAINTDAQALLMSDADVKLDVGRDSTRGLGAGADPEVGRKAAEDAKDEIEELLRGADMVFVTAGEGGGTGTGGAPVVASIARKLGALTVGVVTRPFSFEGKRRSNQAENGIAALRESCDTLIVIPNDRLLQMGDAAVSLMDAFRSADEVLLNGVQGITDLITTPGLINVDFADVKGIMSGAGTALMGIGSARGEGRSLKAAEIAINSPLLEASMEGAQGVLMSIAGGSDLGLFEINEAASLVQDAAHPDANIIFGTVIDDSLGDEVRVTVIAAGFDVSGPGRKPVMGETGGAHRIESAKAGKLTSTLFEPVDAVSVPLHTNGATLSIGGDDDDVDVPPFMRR

[17] = system: M. tuberculosis clinical isolates; assay: microbe, parasite or virus in culture; assay type: cell-based, Mycobacterium tuberculosis
[18] = Plasma stability in mouse plasma; conditions: percent remaining
Method: Plasma was spiked with the compound in order to obtain a final drug concentration of 100 ng/mL (expressed as non-salified compound). The spiked plasma (dedicated to C1h and C4h) was then incubated at 37° C. for 1 h and 4 h. Plasma samples were analyzed by LC-MS/MS following protein precipitation. The limit of quantification for compounds was 10 ng/mL.
10 μL of the sample was injected to Luna Phenomenex C8 (50 mm×2.0 mm, 3 μm). Solvent A: ammonium acetate (0.15 g)/formic acid (2 mL)/HPLC water up to 1000 mL. Solvent B: ammonium acetate (0.15 g)/formic acid (2 mL)/Methanol (200 mL)/Acetonitrile up to 1000 mL, flow rate of 0.3 mL/min, t=0-6 min. gradient of 10-90% of B. Retention time for SB-P17G-C2 was 1.85 min and for SB-P17G-A20 was 3.3 min. MS/MS condition used for detection: Finnigan TSQ Quantum disco instrument, Excalibur version 2.0 acquisition system, ESI positive ion ionization mode. The mean percent of difference between C1h or C4h and C0 concentrations was calculated. M % D (%)=100×[(C1h or C4h)−C0]/C0
The compounds were considered as stable if the mean percent of difference between C4h and C0 concentrations was less than 20%.

[19] = system: M. tuberculosis Erdman; assay type: in vivo; conditions: for Δ Lungs (difference between means of Test and Control Groups) / Δ Spleen (difference between means of Test and Control Groups) / Log10CFU Lungs / Log10CFU Spleen: 50 mg/kg b.i.d. (Inh q.d.); for Log10CFU Lungs / Log10CFU Spleen: day 15
[20] = system: Vero cells; assay: Cytotoxicity assay (resazurin, 72 h); assay type: cell-based; conditions: at 200 μg/mL
Method: The cytotoxicity assay was performed as described previously^16. Briefly compounds were serially diluted in 96 well plates.

| SMILES | Curve [1] | MIC [1] | Efficacy Lung [2] | Efficacy Spleen [2] | Liver Microsome Lability Human [5] | Liver Microsome Lability Mouse [6] | drug concentration response curve (kill curve) type [7] | Log10 (CFU+/−SD) [9] | % Growth Reduction [9] | Log10 (CFU) Reduction [9] | reduction of bacterial load in spleen [10] | reduction of bacterial load in the lungs [10] | reduction of bacterial load in the spleen [11] | MIC ([7]; H37Rv) | Δ Lungs (difference between means of Test and Control Groups) ([19]; IP) | Δ Spleen (difference between means of Test and Control Groups) ([19]; IP) | Log10CFU Lungs ([19]; IP) | Log10CFU Spleen ([19]; IP) | Δ Lungs (difference between means of Test and Control Groups) ([19]; PO) | Δ Spleen (difference between means of Test and Control Groups) ([19]; PO) | further results |
| --- | --- | --- | --- | --- | --- | --- | --- | --- | --- | --- | --- | --- | --- | --- | --- | --- | --- | --- | --- | --- | --- |
| CCCCOC(=O)Nc1cc2nc(C3CCCCC3)[nH]c2cc1N(C)C [SB-P17G-C2] | Sigmoid | .063 | Yes (.3464) | No | 90% | 96% |  |  |  |  |  |  |  |  |  |  |  |  |  |  | MIC [3]: 0.06 µg/mL (≈ 0.167 µM); MIC against clinical isolates [4]: 0.06 to 0.13 µg/mL |
| CCCCOC(=O)Nc1cc2nc(C3CCCCC3)[nH]c2cc1N(CC)CC [SB-P3G2] | Sigmoid | 1.25 | Yes | Yes |  |  | sigmoidal kill curves | 4.80 ± 0.21 | 72% | 0.48 | 0.41±0.36 log10 CFU | 0.71±0.17 log10 CFU | 1.6±0.49 log10 |  |  |  |  |  |  |  | MIC range ([7]; H37Rv and Erdman strains): 0.78 to 1.5 µg/mL; concentrations at which bacterial growth was inhibited ([8]; O.D. 600 nm growth curves, 5 days): greater than 0.62 μg/mL |
| CN(C)c1cc2nc(C3CCCCC3)[nH]c2cc1NC(=O)c1ccc(OC(F)(F)F)cc1 [SB-P17G-A20] | Sigmoid | .31 | Yes | Yes | 39% | 45% |  |  |  |  |  |  |  | 0.16 µg/mL (≈ 0.358 µM) |  |  |  |  |  |  | MIC [7]: 0.16 μg/m; MIC [12]: 0.16 µg/mL (≈ 0.358 µM); MIC [13]: 0.16 µg/mL (≈ 0.358 µM); MIC [14]: 0.16 µg/mL (≈ 0.358 µM); MIC [15]: 0.16 µg/mL (≈ 0.358 µM); concentration that steadily reduced bacterial viability ([8]; CFU plating): 0.08 µg/mL; lowest concentration at which bacterial growth was reduced ([8]; in some cases): 0.125 ×MIC; effect on FtsZ polymerization and aggregation (TEM) [16]: fewer, shorter and thinner FtsZ polymers; MIC against different clinical strains [17]: 0.16 µg/mL (≈ 0.358 µM); plasma stability (4 hours) in mice [18]: 75.6%; metabolic stability (liver microsomes) in humans ([5]; percent remaining): 61%; metabolic stability (liver microsomes) in mice ([6]; percent remaining): 55% |
| CN(C)c1cc2[nH]c(C3CCCCC3)nc2cc1NC(=O)c1ccc(C(F)(F)F)cc1F [SB-P17G-A42] | Sigmoid | .156 | Yes | Yes | 12% | 13% |  |  |  |  |  |  |  | 0.18 ± 0.1 µg/mL (≈ 0.401 µM) | −5.78*** Log10 CFU | −4.96*** Log10 CFU | 0.91 ± 0.64 Log10 CFU | 0 ± 0 Log10 CFU | −5.65*** Log10 CFU | −3.89*** Log10 CFU | MIC ([7]; Mycobacterium tuberculosis, H37RV): 0.18 ± 0.1 µg/mL (≈ 0.401 µM); MIC ([12]; Mycobacterium tuberculosis): 0.24 ± 0.11 µg/mL (≈ 0.535 µM); MIC ([13]; Mycobacterium tuberculosis): 0.16 µg/mL (≈ 0.357 µM); MIC ([14]; Mycobacterium tuberculosis): 0.31 µg/mL (≈ 0.691 µM); MIC ([15]; Mycobacterium tuberculosis): 0.16 µg/mL (≈ 0.357 µM); reduction in number of viable bacteria ([8]; day 2): 2.5 Log10 CFU; reduction in number of viable bacteria ([8]; day 6): ~4 Log10 CFU; reduction of bacterial load in the lungs ([19]; 50 mg/kg b.i.d. via either IP or PO): 5.6-5.8 Log10 CFU; Log10CFU Lungs ([19]; PO): 0.66 ± 0.43 Log10 CFU; Log10CFU Spleen ([19]; PO): 0 ± 0 Log10 CFU; reduction of bacterial load in the lungs ([19]; delivered IP, 50 mg/kg b.i.d.): 5.8 Log10 CFU; reduction of bacterial load in the lungs ([19]; delivered PO, 50 mg/kg b.i.d.): 5.6 Log10 CFU; cytotoxicity in Vero cells [20]: not cytotoxic; also recorded: non-toxic; MIC ([17]; Mycobacterium tuberculosis, read-out: minimal inhibitory concentrations): 0.16 to 0.47 µg/mL (≈ 0.357 to 1.05 µM) |
| NNC(=O)c1ccncc1 [Isoniazid, reference compound] |  |  |  |  |  |  | sigmoidal kill curve | 5.15 ± 0.2 | 36% | 0.2 | below the level of detection | 1.8 log10 CFU | below detectable levels |  | −6.57*** Log10 CFU | −4.96*** Log10 CFU | 0.12 ± 0.16 Log10 CFU | 0 ± 0 Log10 CFU | −6.31*** Log10 CFU | −3.89*** Log10 CFU | reduction of bacterial load in the lung [11]: below detectable levels; Log10CFU Lungs ([19]; PO): 0 ± 0 Log10 CFU; Log10CFU Spleen ([19]; PO): 0 ± 0 Log10 CFU |
